From patent US8188301B2, “Disubstituted phenylpyrrolidines as modulators of cortical catecholaminergic neurotransmission” (NSAB, Filial af NeuroSearch Sweden AB, Sverige, priority 2007, dated 2012)
Counter-ions that a name gives are not always drawn.

First: CN1CCC(O)(c2cccc(F)c2F)C1 (centres unmarked) (as salt: oxalic acid salt) [Example 40]
Second: CN1CCC(O)(c2cccc(Cl)c2F)C1 (centres unmarked) (as salt: oxalic acid salt)
The melting point of the first is higher: 134.3 °C for the first, 123 to 125 °C for the second.

`CCN1CCC(O)(c2ccc(F)c(Cl)c2)C1` (centres unmarked) (as salt: fumaric acid salt) [Example 3, 3-(3-CHLORO-4-FLUOROPHENYL)-1-ETHYLPYRROLIDIN-3-OL] and `CCCN1CCC(O)(c2ccc(F)c(Cl)c2)C1` (centres unmarked) (as salt: fumaric acid salt) cannot be ordered by melting point: 157 to 158 °C for the first, 157.9 °C for the second.

First: CCN1CCC(O)(c2cccc(Cl)c2F)C1 (centres unmarked) (as salt: oxalic acid salt) [Example 35]
Second: CCN1CCC(O)(c2cccc(F)c2F)C1 (centres unmarked) (as salt: fumaric acid salt) [Example 4, 3-(2,3-DIFLUOROPHENYL)-1-ETHYLPYRROLIDIN-3-OL]
The melting point of the first is lower: 71 to 74 °C for the first, 119 to 120 °C for the second.

Compared with `CCCN1CCC(O)(c2cccc(F)c2F)C1` (centres unmarked) (as salt: fumaric acid salt) [Example 34], `CCCCN1CCC(O)(c2cccc(F)c2F)C1` (centres unmarked) (as salt: oxalic acid salt) [Example 38] is higher in melting point: 95 to 98 °C for the first, 155.3 °C for the second.

First: OC1(c2cccc(F)c2F)CCN(CCC(F)(F)F)C1 (single isomer, unassigned; (-)) (as salt: oxalic acid salt) [Example 48, (−)-3-(2,3-DIFLUOROPHENYL)-1-(3,3,3-TRIFLUOROPROPYL)PYRROLIDIN-3-OL]
Second: CCCN1CCC(O)(c2cccc(F)c2F)C1 (centres unmarked) (as salt: fumaric acid salt) [Example 33]
The melting point of the first is higher: 144 °C for the first, 97 to 100 °C for the second.

First: CCN1CCC(O)(c2cc(F)cc(F)c2)C1 (single isomer, unassigned; (+)) (as salt: oxalic acid salt) [Example 2, (+)-3-(3,5-DIFLUOROPHENYL)-1-ETHYLPYRROLIDIN-3-OL]
Second: CCCN1CCC(O)(c2cc(F)cc(F)c2)C1 (centres unmarked) (as salt: fumaric acid salt) [Example 9, 3-(3,5-DIFLUOROPHENYL)-1-PROPYLPYRROLIDIN-3-OL]
The melting point of the first is higher: 137 to 139 °C for the first, 136 to 137 °C for the second.

First: CN1CCC(O)(c2cccc(F)c2F)C1 (centres unmarked) (as salt: oxalic acid salt) [Example 59]
Second: COCCN1CCC(O)(c2cccc(F)c2F)C1 (single isomer, unassigned; (-)) (as salt: oxalic acid salt) [Example 42, (−)-3-(2,3-DIFLUOROPHENYL)-1-(2-METHOXYETHYL)PYRROLIDIN-3-OL]
The melting point of the first is lower: 131 to 132 °C for the first, 146.7 °C for the second.

Compared with `CCCN1CCC(O)(c2ccc(F)c(F)c2)C1` (centres unmarked) (as salt: fumaric acid salt) [Example 28], `CCN1CCC(O)(c2ccc(F)c(F)c2)C1` (centres unmarked) (as salt: fumaric acid salt) is higher in melting point: 128 to 129 °C for the first, 136 to 137 °C for the second.

Compared with `CC(C)N1CCC(O)(c2ccc(F)c(F)c2)C1` (centres unmarked) (as salt: fumaric acid salt), `CN1CCC(O)(c2ccc(F)c(F)c2)C1` (centres unmarked) (as salt: fumaric acid salt) is higher in melting point: 143 to 147 °C for the first, 164 to 166 °C for the second.

First: Fc1cc(F)cc(C2(F)CCNC2)c1 (centres unmarked) (as salt: oxalic acid salt) [Example 13, 3-(3,5-DIFLUOROPHENYL)-3-FLUOROPYRROLIDINE]
Second: CN1CCC(F)(c2cc(F)cc(F)c2)C1 (centres unmarked) (as salt: oxalic acid salt) [Example 11, 3-(3,5-DIFLUOROPHENYL)-3-FLUORO-1-METHYLPYRROLIDINE]
The melting point of the first is higher: 176 to 177 °C for the first, 128 to 129 °C for the second.

First: CN1CCC(O)(c2cc(F)cc(Cl)c2)C1 (centres unmarked) (as salt: fumaric acid salt)
Second: CN1CCC(O)(c2cc(F)cc(F)c2)C1 (centres unmarked) (as salt: oxalic acid salt) [Example 52]
The melting point of the first is lower: 129 to 131 °C for the first, 150 °C for the second.

First: CCCCN1CCC(O)(c2cc(F)cc(F)c2)C1 (centres unmarked) (as salt: oxalic acid salt)
Second: CCCN1CCC(O)(c2cc(F)cc(F)c2)C1 (centres unmarked) (as salt: oxalic acid salt) [Example 30]
The melting point of the first is higher: 146 to 147 °C for the first, 118 to 119 °C for the second.

First: CC(C)CN1CCC(O)(c2cccc(F)c2F)C1 (centres unmarked) (as salt: oxalic acid salt) [Example 61]
Second: C=CCN1CCC(O)(c2cccc(F)c2F)C1 (centres unmarked) (as salt: oxalic acid salt) [Example 62]
The melting point of the first is higher: 168 to 169 °C for the first, 119 to 120 °C for the second.

First: FC1(c2cc(Cl)cc(Cl)c2)CCNC1 (centres unmarked) (as salt: hydrochloric acid salt) [Example 14, 3-(3,5-DICHLOROPHENYL)-3-FLUOROPYRROLIDINE]
Second: Fc1cccc(C2(F)CCNC2)c1F (centres unmarked) (as salt: hydrochloric acid salt) [Example 23, 3-(2,3-DIFLUOROPHENYL)-3-FLUOROPYRROLIDINE]
The melting point of the first is higher: 201 to 202 °C for the first, 136 °C for the second.

First: CCN1CCC(O)(c2cc(F)cc(F)c2)C1 (single isomer, unassigned; (-)) (as salt: oxalic acid salt) [Example 1, (−)-3-(3,5-DIFLUOROPHENYL)-1-ETHYLPYRROLIDIN-3-OL]
Second: CCCN1CCC(O)(c2cc(F)cc(F)c2)C1 (centres unmarked) (as salt: oxalic acid salt) [Example 29]
The melting point of the first is lower: 111 to 112 °C for the first, 117 to 118 °C for the second.

First: COCCN1CCC(O)(c2cc(F)cc(F)c2)C1 (single isomer, unassigned; (-)) (as salt: oxalic acid salt) [Example 45, (−)-3-(3,5-DIFLUOROPHENYL)-1-(2-METHOXYETHYL)PYRROLIDIN-3-OL]
Second: CN1CCC(O)(c2cc(F)cc(F)c2)C1 (centres unmarked) (as salt: oxalic acid salt) [Example 47]
The melting point of the first is lower: 130 to 131 °C for the first, 134 to 135 °C for the second.

Compared with `CCN1CCC(O)(c2cc(F)cc(Cl)c2)C1` (centres unmarked) (as salt: oxalic acid salt) [Example 67], `CCCN1CCC(O)(c2cc(F)cc(Cl)c2)C1` (centres unmarked) (as salt: oxalic acid salt) is higher in melting point: 113 to 114 °C for the first, 157.2 °C for the second.

Compared with `CCN1CCC(O)(c2cc(F)cc(Cl)c2)C1` (centres unmarked) (as salt: oxalic acid salt) [Example 31], `CN1CCC(O)(c2cc(F)cc(Cl)c2)C1` (centres unmarked) (as salt: oxalic acid salt) [Example 66] is lower in melting point: 117 to 118 °C for the first, 114 to 115 °C for the second.

Compared with `CC(C)CN1CCC(O)(c2cccc(F)c2F)C1` (centres unmarked) (as salt: oxalic acid salt) [Example 39], `C=CCN1CCC(O)(c2cccc(F)c2F)C1` (centres unmarked) (as salt: oxalic acid salt) [Example 41] is lower in melting point: 176 °C for the first, 120 °C for the second.

Compared with `CCCN1CCC(O)(c2ccc(F)c(F)c2)C1` (centres unmarked) (as salt: fumaric acid salt) [Example 27], `CCN1CCC(O)(c2ccc(F)c(F)c2)C1` (centres unmarked) (as salt: fumaric acid salt) [Example 12, 3-(3,4-DIFLUOROPHENYL)-1-ETHYLPYRROLIDIN-3-OL] is higher in melting point: 127 to 129 °C for the first, 157 to 158 °C for the second.

First: OC1(c2cccc(F)c2F)CCN(CC2CC2)C1 (centres unmarked) (as salt: oxalic acid salt) [Example 64]
Second: COCCN1CCC(O)(c2cccc(F)c2F)C1 (single isomer, unassigned; (+)) (as salt: oxalic acid salt) [Example 60, (+)-3-(2,3-DIFLUOROPHENYL)-1-(2-METHOXYETHYL)PYRROLIDIN-3-OL]
The melting point of the first is higher: 170 to 171 °C for the first, 149 to 150 °C for the second.

Compared with `C=CCN1CCC(O)(c2cc(F)cc(F)c2)C1` (centres unmarked) (as salt: oxalic acid salt) [Example 44], `CC(C)CN1CCC(O)(c2cc(F)cc(F)c2)C1` (centres unmarked) (as salt: oxalic acid salt) [Example 53] is higher in melting point: 102 to 103 °C for the first, 164 to 165 °C for the second.

First: CCN1CCC(O)(c2cccc(Cl)c2F)C1 (centres unmarked) (as salt: oxalic acid salt) [Example 37]
Second: CCN1CCC(O)(c2cccc(Cl)c2Cl)C1 (centres unmarked) (as salt: oxalic acid salt)
The melting point of the first is lower: 72 to 74 °C for the first, 206 to 207 °C for the second.

First: CCN1CCC(O)(c2ccc(Cl)c(Cl)c2)C1 (centres unmarked) (as salt: fumaric acid salt) [Example 10, 3-(3,4-DICHLOROPHENYL)-1-ETHYLPYRROLIDIN-3-OL]
Second: CCN1CCC(O)(c2cccc(Cl)c2F)C1 (centres unmarked) (as salt: fumaric acid salt)
The melting point of the first is higher: 184 to 185 °C for the first, 142 to 145.5 °C for the second.

Compared with `OC1(c2cccc(F)c2F)CCN(CC2CC2)C1` (centres unmarked) (as salt: oxalic acid salt) [Example 49], `CCCCN1CCC(O)(c2cccc(F)c2F)C1` (centres unmarked) (as salt: oxalic acid salt) [Example 58] is lower in melting point: 172.8 °C for the first, 157 to 158 °C for the second.

Compared with `CN1CCC(O)(c2cc(F)cc(Cl)c2)C1` (centres unmarked) (as salt: oxalic acid salt) [Example 65], `CN1CCC(O)(c2cc(F)cc(F)c2)C1` (centres unmarked) (as salt: oxalic acid salt) [Example 18] is higher in melting point: 117 to 118 °C for the first, 159 to 162 °C for the second.

First: C=CCN1CCC(O)(c2cc(F)cc(F)c2)C1 (centres unmarked) (as salt: oxalic acid salt) [Example 55]
Second: CC(C)CN1CCC(O)(c2cc(F)cc(F)c2)C1 (centres unmarked) (as salt: oxalic acid salt) [Example 46]
The melting point of the first is lower: 104 to 105 °C for the first, 162 to 163 °C for the second.

`CCCN1CCC(O)(c2ccc(F)c(F)c2)C1` (centres unmarked) (as salt: oxalic acid salt) [Example 7, 3-(3,4-DIFLUOROPHENYL)-1-PROPYLPYRROLIDIN-3-OL] and `COCCN1CCC(O)(c2cc(F)cc(F)c2)C1` (single isomer, unassigned; (+)) (as salt: oxalic acid salt) [Example 54, (+)-3-(3,5-DIFLUOROPHENYL)-1-(2-METHOXYETHYL)PYRROLIDIN-3-OL] fall in the same range of melting point: 131 to 132 °C for the first, 131 to 132 °C for the second.

Compared with `OC1(c2cccc(F)c2F)CCN(CCC(F)(F)F)C1` (single isomer, unassigned; (+)) (as salt: oxalic acid salt) [Example 63, (+)-3-(2,3-DIFLUOROPHENYL)-1-(3,3,3-TRIFLUOROPROPYL)PYRROLIDIN-3-OL], `CN1CCC(O)(c2ccc(F)cc2F)C1` (centres unmarked) (as salt: oxalic acid salt) is lower in melting point: 144 to 145 °C for the first, 117 to 119 °C for the second.

For `CCN1CCC(O)(c2cc(F)cc(Cl)c2)C1` (centres unmarked) (as salt: oxalic acid salt) [Example 5, 3-(3-CHLORO-5-FLUOROPHENYL)-1-ETHYLPYRROLIDIN-3-OL], the melting point was 169 to 170 °C.
